# Test results published in ChEMBL document CHEMBL2016507, “Prospective acetylcholinesterase inhibitory activity of indole and its analogs” (Bioorg Med Chem Lett, 2012).
# Target: Acetylcholinesterase (Electrophorus electricus, UniProt O42275)
# Experiment: Inhibition of electric eel AChE using acetylcholine iodide as substrate measured every 5 sec for 2 mins by Ellman's method
# Sequence of Acetylcholinesterase (Electrophorus electricus, UniProt O42275) (O42275 whole entry): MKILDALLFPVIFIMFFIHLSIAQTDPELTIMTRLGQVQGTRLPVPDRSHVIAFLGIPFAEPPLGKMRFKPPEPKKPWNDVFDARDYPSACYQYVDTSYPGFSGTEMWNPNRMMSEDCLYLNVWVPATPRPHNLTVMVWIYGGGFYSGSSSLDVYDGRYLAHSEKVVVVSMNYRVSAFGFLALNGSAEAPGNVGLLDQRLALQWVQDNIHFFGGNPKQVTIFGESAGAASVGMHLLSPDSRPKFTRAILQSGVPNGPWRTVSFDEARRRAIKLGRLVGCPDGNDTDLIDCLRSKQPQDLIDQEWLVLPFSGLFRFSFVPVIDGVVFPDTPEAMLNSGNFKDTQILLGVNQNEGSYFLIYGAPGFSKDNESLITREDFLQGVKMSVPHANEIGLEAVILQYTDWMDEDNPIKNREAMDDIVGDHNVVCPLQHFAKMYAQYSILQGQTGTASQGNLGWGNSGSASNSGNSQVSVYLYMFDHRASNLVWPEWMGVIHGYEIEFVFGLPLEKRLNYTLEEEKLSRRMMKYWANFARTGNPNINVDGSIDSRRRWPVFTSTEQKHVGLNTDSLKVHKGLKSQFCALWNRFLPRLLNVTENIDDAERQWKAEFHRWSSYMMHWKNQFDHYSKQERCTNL
row,SMILES,IC50 [µM]
1,CC1=NCCc2c1[nH]c1cc(O)ccc21 [HARMALOL],11.3
2,Cc1nccc2c1[nH]c1ccccc12 [HARMAN],20.9
3,COc1ccc2c(ccc[n+]2C)c1,7.67
4,Cc1nccc2c1[nH]c1cc(O)ccc12,8.02
5,COc1ccc2c(ccc[n+]2Cc2ccccc2)c1,2.46
6,COc1ccc2[nH]c3c(c2c1)CCNC3,227
7,COc1ccc2c(c1)[nH]c1c(C)nccc12 [HARMINE],22.9
8,c1ccc2c3c([nH]c2c1)CNCC3 [TRYPTOLINE],97.1
9,COc1ccc2c3c([nH]c2c1)C(C)=NCC3 [HARMALINE],4.9

# Target: Acetylcholinesterase (Electrophorus electricus) (UniProt O42275)
# Sequence (O42275 24-633 limits assumed): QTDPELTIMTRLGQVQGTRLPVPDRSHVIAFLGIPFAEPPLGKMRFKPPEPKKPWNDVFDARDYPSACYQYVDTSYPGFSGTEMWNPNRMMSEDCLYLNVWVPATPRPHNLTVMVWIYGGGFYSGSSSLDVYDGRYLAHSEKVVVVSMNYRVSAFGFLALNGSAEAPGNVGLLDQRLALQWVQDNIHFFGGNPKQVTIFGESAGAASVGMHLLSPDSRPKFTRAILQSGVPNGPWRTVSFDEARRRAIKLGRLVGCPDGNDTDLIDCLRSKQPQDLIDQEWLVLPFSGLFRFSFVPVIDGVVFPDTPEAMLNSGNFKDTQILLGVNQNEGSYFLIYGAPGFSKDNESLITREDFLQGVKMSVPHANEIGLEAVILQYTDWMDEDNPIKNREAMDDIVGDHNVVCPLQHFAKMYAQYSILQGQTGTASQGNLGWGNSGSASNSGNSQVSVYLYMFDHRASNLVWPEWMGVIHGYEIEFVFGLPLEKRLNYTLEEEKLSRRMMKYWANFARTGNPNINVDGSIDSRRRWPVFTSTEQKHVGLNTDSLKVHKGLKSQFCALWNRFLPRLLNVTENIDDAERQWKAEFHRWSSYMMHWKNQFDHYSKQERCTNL
# Experiment: Inhibition of electric eel AChE using acetylcholine iodide as substrate at 6.2 X 10^-4 M measured every 5 sec for 2 mins by Ellman's method
row,SMILES,inhibition [%]
1,O=C(O)c1cccc2cc[nH]c12,23.4
2,O=C(O)c1cccc2[nH]ccc12,36.8
3,O=C(O)c1ccc2[nH]ccc2c1,29.1
4,O=C(O)c1ccc2cc[nH]c2c1,28.5

# Target: T1, Acetylcholinesterase (Homo sapiens, UniProt P22303)
# T1 sequence (P22303 whole entry): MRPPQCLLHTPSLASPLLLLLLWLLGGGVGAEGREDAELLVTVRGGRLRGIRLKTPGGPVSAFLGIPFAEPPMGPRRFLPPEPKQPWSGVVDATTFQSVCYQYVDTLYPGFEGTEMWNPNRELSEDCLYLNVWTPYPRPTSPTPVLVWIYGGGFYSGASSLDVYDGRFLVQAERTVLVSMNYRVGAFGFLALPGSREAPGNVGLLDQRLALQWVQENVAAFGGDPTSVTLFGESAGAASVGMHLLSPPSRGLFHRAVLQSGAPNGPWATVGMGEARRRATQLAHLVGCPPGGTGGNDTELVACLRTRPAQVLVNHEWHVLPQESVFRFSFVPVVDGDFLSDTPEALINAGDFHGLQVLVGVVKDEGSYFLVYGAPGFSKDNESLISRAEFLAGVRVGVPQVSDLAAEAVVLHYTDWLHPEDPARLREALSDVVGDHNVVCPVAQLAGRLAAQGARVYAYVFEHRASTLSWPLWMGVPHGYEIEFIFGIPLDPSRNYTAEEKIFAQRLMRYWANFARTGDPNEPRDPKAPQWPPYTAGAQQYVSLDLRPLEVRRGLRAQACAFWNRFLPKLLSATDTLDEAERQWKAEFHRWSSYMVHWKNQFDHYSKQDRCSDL
# Experiment: Inhibition of human AChE by Ellman's method
row,SMILES,IC50 [µM]
1,COc1ccc2c(ccc[n+]2C)c1,49.7
2,COc1ccc2c(ccc[n+]2Cc2ccccc2)c1,5.29
3,COc1ccc2c3c([nH]c2c1)C(C)=NCC3 [HARMALINE],23.7

# Target: T1, Acetylcholinesterase
# Experiment: Inhibition of AChE by Ellman's method
row,SMILES,IC50 [µM]
1,CC[C@H]1C[C@@H]2C[C@H]3c4[nH]c5cc([C@@H]6C[C@H]7C(C(=O)OC)[C@@H](Cc8c6[nH]c6ccccc86)N(C)C[C@H]7CC)ccc5c4CCN(C2)[C@@H]13 (stereo partly drawn),0.227
2,CC[C@H]1C[C@@H]2CN3CCc4c([nH]c5cc([C@H]6C[C@H]7C(C(=O)OC)[C@H](Cc8c6[nH]c6ccccc86)N(C)C[C@H]7CC)ccc45)[C@](C(=O)OC)(C2)[C@H]13 (stereo partly drawn),0.071
